# Legend:
# pGMR-HTTQ120 flies = conditions: orally-administered, previous studies; cited from earlier work
# Gr63a = test: Whole mount RNA in situ of adult Drosophila antenna Gr63a; format: in vivo; conditions: 5 days; odor 1 1% on filter paper, sodium butyrate 10 mM fed; vs untreated or mock
# Description: For five days, Drosophila were exposed to 1% diacetyl (odor 1) on filter paper; fed known HDAC inhibitor sodium butyrate (Na-but; 10 mM); or fed known HDAC inhibitor valproic acid (10 mM).
# [1] = system: gene expression in the antenna of Drosophila melanogaster; test: RNA-seq transcriptome analysis of Drosophila antennae after exposure or feeding; format: in vivo; conditions: 5 days; diacetyl 1% headspace, SB/VA 10 mM in food; vs control
# From the text: In order to examine the physiological effects of long-term exposure to an odorant, flies were maintained in vials with circulating volatiles from headspace of a low concentration (1% in paraffin oil) of the odorant diacetyl, which acts on a number of different receptor pathways in Drosophila. In a similar manner to previous odor-exposure studies, flies were exposed to diacetyl for 5 days and performed an RNA-seq analysis of the antennae, which are known odor-detecting organs. The transcriptome was compared with a control group of age-matched flies that were exposed to the headspace of the solvent paraffin oil (PO, FIG. 3A).
# Flies were exposed to diacetyl (2,3-Butanedione, B85307, Sigma-Aldrich, St. Louis, Mo.) by placing them in vials in a cylindrical closed container (112 mm diameter×151 mm height) along with an odor-containing glass vial. The odorant was dissolved in 10 mL paraffin oil at 1% dilution. For a given exposure protocol, two groups of flies were prepared: those exposed to 1% diacetyl headspace and those exposed to paraffin oil headspace alone (control flies). Adult male flies aged 1 d were transferred to fly vials containing fresh medium, and put into the container with the odor vial. At the end of the fifth day of exposure, flies were collected, and their antennae were dissected for RNA extraction. All treatments and experiments were performed at room temperature. For the recovery experiment, flies were transferred again to the container containing a glass vial of paraffin oil after 5 days of diacetyl exposure. At the end of the fifth day of recovery, flies were collected, and their antennae were dissected for RNA extraction.
# Sodium butyrate (B5887, Sigma-Aldrich) or valproic acid (P4543, Sigma-Aldrich) were dissolved in normal fly food medium at the final concentration of 10 mM. Three groups of flies were prepared: those treated with one of the HDAC inhibitors and those without HDAC inhibitor treatment (control flies). Adult flies aged 1 d were transferred to fly vials containing medium with or without a HDAC inhibitor. At the end of the fifth day of treatment, flies were collected, and their antennae were dissected for RNA extraction. All treatments and experiments were performed at room temperature.
# The second and third antennal segments from 40-60 male flies after treatment were carefully hand-dissected from the head, collected in 1.5 ml microfuge tubes kept cold in liquid nitrogen. Antennae were mechanically crushed with disposable RNAse-free plastic pestles, and total RNA was isolated using a Trizol-based protocol. cDNA libraries were prepared from total RNA (300-1000 ng/sample) using the Illumina TruSeq RNA Library Preparation Kit (Illumina Catalog #RS-122-2001). Samples were submitted to the UCR IIGB sequencing core for high-throughput sequencing using the Illumina HiSeq2500 platform. Raw reads were aligned to the Drosophila melanogaster reference genome (dmel-all-chromosome-r5.48.fasta) with Tophat2, and a count table of reads overlapping with exonic regions of genes was generated by the UCR bioinformatics core. The numbers of biological replicates are: 2, day 5 paraffin oil; 1, day 5 diacetyl; 2, day 5 mock; 2, day 5 sodium butyrate; 2, day 5 valproic acid; 2, day 10 paraffin oil recovery; 2, day 10 diacetyl recovery.
# The read count table for all the genes were then imported into R and a statistical analysis of differential gene expression using the DESeq package (1.22.0) was performed. […] The gene list analysis was performed using the GO Term Mapper (http://go.princeton.edu/) with Generic GO slim datasets, and the Statistical overrepresentation test was performed using the PANTHER classification (http://www.pantherdb.org/) system with GO complete datasets.
# This example investigates the overlap among genes modulated by diacetyl as compared to sodium butyrate and valproic acid, which are known HDAC inhibitors. […]
Structure (SMILES),photoreceptor degeneration in Huntington's model Drosophila (pGMR-HTTQ120 flies),Gr63a expression in antenna (RNA in situ) (Gr63a),number of differentially-expressed genes in antennal transcriptome [1] [genes],number of genes down-regulated >2-fold [1] [genes],number of genes up-regulated >2-fold [1] [genes]
"O=C(CCCCCCC(=O)Nc1ccccc1)NO [SAHA, suberoylanilide hydroxamic acid]",significantly reduce photoreceptor degeneration,,,,
"CCCC(=O)[O-].[Na+] [sodium butyrate, Sodium butyrate, reference compound]",significantly reduce photoreceptor degeneration,over-expression,558,366,192
"CCCC(CCC)C(=O)O [valproic acid, reference compound]",,,940,772,168

# Reference: US10537535B2, “Histone deacetylase inhibitors” (The Regents of the University of California, priority 2015, dated 2020)
